Biological target: NAD(P)H dehydrogenase [quinone] 1 (Homo sapiens, UniProt P15559)
Sequence (P15559 whole entry): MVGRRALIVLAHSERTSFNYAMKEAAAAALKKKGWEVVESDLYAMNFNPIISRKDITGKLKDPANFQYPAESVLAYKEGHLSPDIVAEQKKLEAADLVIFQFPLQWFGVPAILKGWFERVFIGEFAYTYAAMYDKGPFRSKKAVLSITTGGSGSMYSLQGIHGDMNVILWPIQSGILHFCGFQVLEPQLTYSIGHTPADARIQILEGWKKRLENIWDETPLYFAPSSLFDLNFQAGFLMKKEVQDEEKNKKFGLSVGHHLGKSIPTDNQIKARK
Description: Inhibition of human recombinant NQO1

IC50	Compound
17.5 µM	O=C1c2ccccc2C(=O)c2c(O)c(NCCCNCCO)cc(O)c21
10 µM	CN(C)CCNc1ccc2ncn3c4ccc(O)cc4c(=O)c1c23
3 µM	Cn1c2cc(O)ccc2c2c3nc4ccccc4nc3cc(O)c21
55 µM	CNC(=O)N(OC(N)=O)C(C)=O
25 µM	Nc1nc2cc3nc(N)c(N)nc3cc2nc1N
2 µM	O=c1c2ccccc2c(=O)c2c1c(O)cc1[nH]c3ccccc3[nH]c12
10 µM	COc1ccc(OC)c2cc3ccccc3cc12
35 µM	O=[N+]([O-])c1ccc(N/N=C(\N=N\c2ccccc2)c2nc3ccccc3[nH]2)c([N+](=O)[O-])c1
35 µM	CCOC(=O)C1=NN(c2ccccc2)C(=O)/C1=C\NC(=S)N/N=C1\C(=O)Nc2ccccc21
105 µM	Cn1ncc2c(Cl)ncnc21
7.5 µM	Nc1ccc(O)c2c1C(=O)c1c(O)c(S(=O)(=O)O)cc(N)c1C2=O
2 µM	O=C1c2ccccc2C(=O)c2c(O)c(NCCCN3CCOCC3)cc(O)c21
3 µM	O=C1c2ccccc2C(=O)c2c(O)c(NCCCN(CCO)CCO)cc(O)c21
3.5 µM	CCOc1ccc(OCC)cc1 [1,4-DIETHOXYBENZENE]

Compound	IC50
Cc1cc(=O)cc(C)o1	20 µM
C(=N\NC1=NCCN1)/c1c2ccccc2c(/C=N/NC2=NCCN2)c2ccccc12 [BISANTRENE]	25 µM
COc1ccc2c(c1)-c1nn(CCCN(C)C)c3ccc([N+](=O)[O-])c(c13)N2 [PYRAZOLOACRIDINE]	45 µM
